Laboratory results as given in EP0011277A1, “Dechloromaytansinoids, their production and use and pharmaceutical compositions containing them” (priority 1978, dated 1980).
≈ marks a conversion by molar mass, not a printed value. Read-outs that look alike come from different tables or passages of the source.

Assays:
[1] = tested on: Tetrahymena pyriformis W; assay: Antiprotozoal activity, growth inhibition by serial dilution method; assay type: cell-based; details: read-out: Antiprotozoal activity MIC (μg/ml) Tetrahymena pyriformis W
Description: Antiprotozoal activity of compound (I) was assayed with Tetrahymena pyriformis W as the test organism and a medium composed of 20 g tryptose-peptone (Difoo Cc.), 1 g; yeast extract, 2 g glucose, 1000 mℓ distilled water, 10 mℓ IM phosphate buffer (pH 7.0) as the assay medium. The microorganism was incubated at 28°C for 44 to 48 hours and the growth inhibitory activity of compound (I) was assayed by the serial dilution method.

[2] = tested on: leukemia P-388; assay: Antitumor therapeutic test in mice, leukemia P-388 (NCI protocol), life span prolongation; assay type: in vivo; details: intraperitoneally once daily for 9 consecutive days
Description: (§1) Therapeutic tests were carried out in mice according to NCI-protocols 1,200 and 1,300, Cancer Chemother, Reports, Part 3, 1972, Vol.3, No.2, in which leukemia P-388 and melanoma B-16 tumor cells had been intraperitoneally transplanted, compound (I) being administered intraperitoneally once daily for 9 consecutive days.

[3] = tested on: melanoma B-16; assay: Antitumor therapeutic test in mice, melanoma B-16 (NCI protocol), life span prolongation; assay type: in vivo; details: intraperitoneally once daily for 9 consecutive days
Description: as §1

Molecule: COc1cc2cc(c1)N(C)C(=O)CC(OC(=O)CCl)C1(C)OC1C(C)C1CC(O)(NC(=O)O1)C(OC)/C=C/C=C(\C)C2 (stereo not shown) [Dechloromaytansinol 3-chloroacetate, dechloromaytansinol 3-chloroacetate]
- MIC [1]: ≥ 4 µg/mL

Molecule: dechloromaytansine
- Antitumor activities P-388 (T/C %) ([2]; Dose 50 µg/kg): 158 T/C %
- Antitumor activities P-388 (T/C %) ([2]; Dose 100 µg/kg): 165 T/C %
- Antitumor activities P-388 (T/C %) ([2]; Dose 200 µg/kg): 175 T/C %
- Antitumor activities P-388 (T/C %) ([2]; Dose 400 µg/kg): 189 T/C %
- Antitumor activities B-16 (T/C %) ([3]; Dose 100 µg/kg): 171 T/C %
- Antitumor activities B-16 (T/C %) ([3]; Dose 200 µg/kg): 152 T/C %
- Antitumor activities B-16 (T/C %) ([3]; Dose 400 µg/kg): 179 T/C %
- Antitumor activities B-16 (T/C %) ([3]; Dose 800 µg/kg): 190 T/C %

Molecule: COc1cc2cc(c1)N(C)C(=O)CC(OC(=O)C1CCCCC1)C1(C)OC1C(C)C1CC(O)(NC(=O)O1)C(OC)/C=C/C=C(\C)C2 (stereo not shown) [dechloromaytansinol 3-cyclohexanecarboxylate]
- MIC [1]: 4 µg/mL (≈ 6.24 µM)

Molecule: COc1cc2cc(c1)N(C)C(=O)CC(OC(=O)C(C)C)C1(C)OC1C(C)C1CC(O)(NC(=O)O1)C(OC)/C=C/C=C(\C)C2 (stereo not shown) [Dechloromaytansinol 3-isobutyrate, dechloromaytansinol 3-isobutyrate]
- Antitumor activities P-388 (T/C %) ([2]; Dose 50 µg/kg): 168 T/C %
- Antitumor activities P-388 (T/C %) ([2]; Dose 100 µg/kg): 189 T/C %
- Antitumor activities P-388 (T/C %) ([2]; Dose 200 µg/kg): 193 T/C %
- Antitumor activities P-388 (T/C %) ([2]; Dose 400 µg/kg): 224 T/C %
- Antitumor activities B-16 (T/C %) ([3]; Dose 100 µg/kg): 150 T/C %
- Antitumor activities B-16 (T/C %) ([3]; Dose 200 µg/kg): 152 T/C %
- Antitumor activities B-16 (T/C %) ([3]; Dose 400 µg/kg): 174 T/C %
- Antitumor activities B-16 (T/C %) ([3]; Dose 800 µg/kg): 214 T/C %

Molecule: COc1cc2cc(c1)N(C)C(=O)CC(OC(=O)Cc1ccccc1)C1(C)OC1C(C)C1CC(O)(NC(=O)O1)C(OC)/C=C/C=C(\C)C2 (stereo not shown) [Dechloromaytansinol 3-phenylacetate, dechloromaytansinol 3-phenylacetate]
- MIC ([1]; incubated at 28°C for 44 to 48 hours, serial dilution method): 2 µg/mL (≈ 3.08 µM)
